In US20260216166A1, “COMPOUND FOR TREATMENT OF ERECTILE DYSFUNCTION” (Initiator Pharma A/S, priority 2023, published 2026):
Entries after “also recorded” stand apart in the source; their conditions may differ. Like-named read-outs stand apart in the source and are kept apart here.

Experiments:
[1] = system: anaesthetized rats; test: Intracavernous pressure / spontaneous erections in anaesthetized rats; format: in vivo, rat
Method: For in vivo erectile physiology studies, rats were anaesthetized with pentobarbital sodium (Sygehus Apoteket, Aarhus, Denmark; 50 mg/kg) given intraperitoneally. During the experiment, the rats breathed spontaneously; the body temperature was monitored continuously and was maintained at 37° C. With a midline incision in the perineum, the base of the penis, enclosed by striated muscles, was exposed. The ischiocavernous muscle covering the crus corpus cavernosum was divided on one side, and entrance to the underlying tunica albuginea was given. A 25-gauge needle attached to a heparinized (100 IE ml-1) polyethylene catheter was inserted into the crus corpus cavernosum to measure intracavernous pressure (ICP). A heparinized polyethylene catheter (PE 50) was introduced into the carotid artery to measure mean arterial pressure (MAP). Continuous direct measurements of MAP and ICP were performed with transducers (Disposable BP Transducer, ADInstruments, UK), and registered and analysed on a computerized data acquisition system (PowerLab, ADInstruments).
A stabilizing period of 20-30 min was allowed before registration of basal ICP and MAP. Through a lower abdominal incision, the cavernous nerve was isolated at the lateral aspect of the prostate, and electrical stimulation was performed with a slender bipolar platinum electrode, which was connected to a S48 stimulator (Grass Instrument Co., Boston, MA, U.S.A.). To measure the maximum amplitude of the erectile response, a first stimulation of the cavernous nerve (square wave pulses of 6 Volts, 10 Hz, 1 ms pulse duration for 30 s) was performed.
IP2015, sildenafil, clozapine or vehicle were administered by injection in the jugular vein in volumes of maximum 200 μl. […] The observation period of spontaneous erection after injection of IP2015 was 30 min. Clozapine (1 mg/kg) or sildenafil (1 mg/kg) were administered 30 or 10 min prior to 1 mg/kg IP2015 injection, respectively. One group was injected with vehicle alone.
To investigate the involvement of proximal neuronal pathways in the effect of IP2015, mechanical denervation was performed. For mechanical denervation the isolated cavernous nerve was cut distal to the major pelvic ganglion. Absence of erectile response to electrical stimulation verified the efficacy of mechanical denervation.

[2] = Phase I ascending single oral dose pharmacokinetics in healthy male subjects; format: in vivo, human; settings: for half-life / Tmax: male, human, plasma
Method: The study was a Phase I, randomised, double-blind, placebo-controlled, ascending single oral dose, safety, tolerability, pharmacokinetic (PK) and pharmacodynamics (PD) study of IP2015 in healthy male subjects.
Each subject received one oral dose of IP2015 or matched placebo. The starting dose of IP2015 was 0.01 mg in Cohort 1. The dose level was to be escalated to a maximum of 0.05 mg in Cohort 2 and a maximum of 0.2 mg in Cohort 3. The doses in the remaining five cohorts were to be determined based on the dose escalation criteria. In every cohort, no more than 2 subjects were dosed on the first dosing day (1 active; 1 placebo) such that no more than 1 subject received an active IP2015 dose for the first time at each dose level.
The IP2015 or matched placebo was administered once on the morning of Day 1 as an oral solution in the fasted state. The dose was taken with 240 ml of water at room temperature. Subjects/participants were fasted overnight prior to dosing until 4 hours postdose. Water was allowed ad libitum except for 1 hour before and 1 hour after dosing.
The doses used in each cohort were as follows: • Cohort 1-0.01 mg • Cohort 2-0.05 mg • Cohort 3-0.2 mg • Cohort 4-0.6 mg • Cohort 5-1.8 mg • Cohort 6-5.4 mg • Cohort 7-16.2 mg • Cohort 8-10 mg
The study also evaluated plasma PK concentrations and parameters including but not limited to: area under the plasma concentration vs time curve (AUC), from time zero to the last quantifiable concentration (AUC0-t), AUC from zero to infinity (AUC0-∞), observed maximum plasma concentration (Cmax), time to reach maximum plasma concentration (tmax) and terminal elimination half-life (T½) in healthy male subjects. Blood samples for the determination of plasma concentrations of IP2015 were collected at predose, and 0.25, 0.5, 1, 1.5, 2, 3, 4, 6, 8, 12, 16, 24, 36 and 48 hours postdose.
Safety parameters were listed and summarised using descriptive statistics. Pharmacokinetic parameter estimates were calculated using noncompartmental methods. Pharmacokinetic data were listed for each subject/patient and summarised by descriptive statistics.
Dose proportionality was analysed for Part A with a linear regression model using the logarithm of a PK parameter as responsible variable and the logarithm of the dose as the independent variable. The linear regression model can be expressed as: […]
The above model was applied to the following PK parameters; AUC0-t, AUC0-∞ and Cmax. Based on the linear regression model, the dose proportionality coefficient (slope) and its two-sided 90% confidence interval (CI) were estimated. Dose proportionality was declared if the 90% CI for the slope was completely contained in the following range 16: 1+log (0.5)/log (r), 1+log (2)/log (r), where r is the high dose/low dose.

[3] = 0.2 to 16.2 mg single dose range

COc1cc2ccc(OC3CC4CCC(C3)N4)cc2oc1=O (stereo not drawn) [IP2015, 7-[(8-azabicyclo[3.2.1]octan-3-yl)oxy]-3-methoxy-chromen-2-one]
intracavernosal pressure ([1]; anaesthetized rats, 0.1, 1, and 10 mg/kg in the jugular vein, in contrast to vehicle): induced transient increases in intracavernosal pressure corresponding to erections; also recorded: dose-dependent increases in intracavernous pressure | responses to electrical field stimulation (EFS) of the cavernous nerve ([1]; anaesthetized rats, IP2015 administration): without changing the responses to EFS | magnitude of erectile responses, ICP increases as percentage of MAP ([1]; anaesthetized rats, compared to vehicle): significantly increased compared to vehicle | frequency, duration, and magnitude of spontaneous erections ([1]; anaesthetized rats, i.v. 0.1, 1, 10 mg/kg): dose-dependently increased the number and the duration of spontaneous erections | IP2015-induced erectile responses after cutting the cavernosal nerve ([1]; anaesthetized rats, mechanical denervation): inhibited | penile pressure ([1]; direct intracavernosal injection): increased penile pressure | increase of systemic exposure with dose based on AUC0-t [2, 3]: greater than dose-proportional manner | increase of systemic exposure with dose based on AUC0-∞ and Cmax [2, 3]: slightly more than dose-proportional manner | subjects with plasma concentrations below the LLOQ ([2]; healthy males, 0.2 mg): 3/7 | plasma concentrations of IP2015 ([2]; healthy males, single oral 0.01 mg and 0.05 mg): below the LLOQ for all subjects | half-life ([2]; oral, healthy males, 0.6 mg, calculated for 1/6 subjects, read-out: mean t½ (converted)): 14.5 h | half-life ([2]; oral, healthy males, 1.8 mg, calculated for 3/6 subjects, read-out: mean t½ (converted)): 16.1 h | Tmax ([2]; oral, healthy males, across all dose levels, read-out: tmax range): 1 to 6 h | half-life ([2]; oral, healthy males, range of means across 5.4 mg to 16.2 mg doses, read-out: mean T½): 23.1 to 26.3 h | Tmax ([2]; healthy males, range of medians across single oral doses 0.2-16.2 mg, read-out: median tmax): 2.25 to 5 h
